In US10144706B2 (BRISTOL-MYERS SQUIBB COMPANY, priority 2016, dated 2018) one finds IC50 data, which are given here for 24 molecules.

Like-named read-outs stand apart in the source and are kept apart here.

The target in this experiment is T1, PD-1/PD-L1 interaction (PD-1-Ig / PD-L1-His) (Homo sapiens, UniProt Q9NZQ7).
T1 construct: hPDL1(18-239)-TVMV-His; TVMV protease site linker (C); made in house; host or cells: HEK293T
Description: PD-1/PD-L1 Homogenous Time-Resolved Fluorescence (HTRF) binding assay. Particulars: PD-L1-His 10 nM, PD-1-Ig 20 nM, read-out: Range or IC50. In outline: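 Human PD-L1-His (10 nM final) was pre-incubated with inhibitor for 15 min, then PD-1-Ig (20 nM final) was added for a further 15 min in dPBS with 0.1% BSA and 0.05% Tween-20. Binding was detected by HTRF using Eu-cryptate anti-Ig (1 nM) and APC anti-His (20 nM).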

T1 sequence (Q9NZQ7 with tags, fused parts or gaps): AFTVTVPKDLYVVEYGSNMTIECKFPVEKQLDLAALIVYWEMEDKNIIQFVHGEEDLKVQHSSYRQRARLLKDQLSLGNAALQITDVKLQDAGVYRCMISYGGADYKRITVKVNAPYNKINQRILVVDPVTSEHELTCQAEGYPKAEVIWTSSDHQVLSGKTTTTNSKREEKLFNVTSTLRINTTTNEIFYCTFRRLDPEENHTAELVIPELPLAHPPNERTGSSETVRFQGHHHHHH

Turning to `Cc1c(OCCCN(CC#N)C[C@H](O)CO)cccc1-c1cccc(OCCCN(CC#N)C[C@H](O)CO)c1C` [Example 2100, 2,2′-((((2,2′-dimethyl-[1,1′-biphenyl]-3,3′-diyl)bis(oxy))bis(propane-3,1-diyl))bis(((S)-2,3-dihydroxypropyl)azanediyl))diacetonitrile], the IC50 (as a rule, the concentration needed to halve the response being measured) (IC50 range class) was 20.1 to 90 nM. On the same count and under the same terms, under `Cc1c(OCCCN(CCc2ccccn2)C[C@H](O)CO)cccc1-c1cccc(OCCCN(CCc2ccccn2)C[C@H](O)CO)c1C` [Example 2101, (2S,2′S)-3,3′-((((2,2′-dimethyl-[1,1′-biphenyl]-3,3′-diyl)bis(oxy))bis(propane-3,1-diyl))bis((2-(pyridin-2-yl)ethyl)azanediyl))bis(propane-1,2-diol)] stands 20.1 to 90 nM. Still for that read-out and setting: under `Cc1c(OCCCN(CCc2cccnc2)C[C@H](O)CO)cccc1-c1cccc(OCCCN(CCc2cccnc2)C[C@H](O)CO)c1C` [Example 2102, (2S,2′S)-3,3′-((((2,2′-dimethyl-[1,1′-biphenyl]-3,3′-diyl)bis(oxy))bis(propane-3,1-diyl))bis((2-(pyridin-3-yl)ethyl)azanediyl))bis(propane-1,2-diol)] stands 20.1 to 90 nM; under `Cc1c(OCCCNC[C@H](O)CO)cccc1-c1cccc(OCCCN(CCc2cccnc2)C[C@H](O)CO)c1C` [Example 2103, (S)-3-((3-((3′-(3-(((S)-2,3-dihydroxypropyl)(2-(pyridin-3-yl)ethyl)amino)propoxy)-2,2′-dimethyl-[1,1′-biphenyl]-3-yl)oxy)propyl)amino)propane-1,2-diol], 0.04 to 20 nM. Consider `Cc1c(OCCCN2CCCCC2)cccc1-c1cccc(OCCCN2CC[C@@H](O)C2)c1C` [Example 2105, (R)-1-(3-((2,2′-dimethyl-3′-(3-(piperidin-1-yl)propoxy)-[1,1′-biphenyl]-3-yl)oxy)propyl)pyrrolidin-3-ol], for which, under “IC50 range class”, the IC50 was in the range of 20.1 to 90 nM. Still for that read-out and setting: then `Cc1c(OCCCN2CCC(CO)CC2)cccc1-c1cccc(OCCCN2CC[C@@H](O)C2)c1C` [Example 2106, (R)-1-(3-((3′-(3-(4-(hydroxymethyl)piperidin-1-yl)propoxy)-2,2′-dimethyl-[1,1′-biphenyl]-3-yl)oxy)propyl)pyrrolidin-3-ol], with 20.1 to 90 nM. Still for that read-out and setting: under `CC(=O)NC1CCN(CCCOc2cccc(-c3cccc(OCCCN4CC[C@@H](O)C4)c3C)c2C)C1` (stereo partly drawn) [Example 2107, N-(1-(3-((3′-(3-((R)-3-hydroxypyrrolidin-1-yl)propoxy)-2,2′-dimethyl-[1,1′-biphenyl]-3-yl)oxy)propyl)pyrrolidin-3-yl)acetamide] stands 20.1 to 90 nM; under `Cc1c(OCCCN2CCN(c3ccccn3)CC2)cccc1-c1cccc(OCCCN2CC[C@@H](O)C2)c1C` [Example 2108, (R)-1-(3-((2,2′-dimethyl-3′-(3-(4-(pyridin-2-yl)piperazin-1-yl)propoxy)-[1,1′-biphenyl]-3-yl)oxy)propyl)pyrrolidin-3-ol], 90.1 to 1000 nM.

As to `Cc1c(OCCCN2CCN(CC(=O)NC(C)C)CC2)cccc1-c1cccc(OCCCN2CC[C@@H](O)C2)c1C` [Example 2109, (R)-2-(4-(3-((3′-(3-(3-hydroxypyrrolidin-1-yl)propoxy)-2,2′-dimethyl-[1,1′-biphenyl]-3-yl)oxy)propyl)piperazin-1-yl)-N-isopropylacetamide], for the setting “IC50 range class”, the IC50 is 90.1 to 1000 nM.

As to `Cc1c(OCCCN(C)CCc2ccccc2)cccc1-c1cccc(OCCCN2CC[C@@H](O)C2)c1C` [Example 2110, (R)-1-(3-((2,2′-dimethyl-3′-(3-(methyl(phenethyl)amino)propoxy)-[1,1′-biphenyl]-3-yl)oxy)propyl)pyrrolidin-3-ol], where the note is “IC50 range class”, the IC50 was in the range of 90.1 to 1000 nM. The same measure, in the same setting: under `COc1ccccc1N1CCN(CCCOc2cccc(-c3cccc(OCCCN4CC[C@@H](O)C4)c3C)c2C)CC1` [Example 2111, (R)-1-(3-((3′-(3-(4-(2-methoxyphenyl)piperazin-1-yl)propoxy)-2,2′-dimethyl-[1,1′-biphenyl]-3-yl)oxy)propyl)pyrrolidin-3-ol] stands 20.1 to 90 nM. On to `Cc1c(OCCCNC[C@H](O)c2ccccc2)cccc1-c1cccc(OCCCN2CC[C@@H](O)C2)c1C` [Example 2112, (R)-1-(3-((3′-(3-(((R)-2-hydroxy-2-phenylethyl)amino)propoxy)-2,2′-dimethyl-[1,1′-biphenyl]-3-yl)oxy)propyl)pyrrolidin-3-ol], for which the IC50 (numeric IC50) worked out at 81 nM. As to `Cc1c(OCCCNC[C@@H](O)c2ccccc2)cccc1-c1cccc(OCCCN2CC[C@@H](O)C2)c1C` [Example 2113, (R)-1-(3-((3′-(3-(((S)-2-hydroxy-2-phenylethyl)amino)propoxy)-2,2′-dimethyl-[1,1′-biphenyl]-3-yl)oxy)propyl)pyrrolidin-3-ol], the IC50 (IC50 range class) lay within 20.1 to 90 nM. Take `Cc1c(OCCCN2CCC[C@@H](O)C2)cccc1-c1cccc(OCCCN2CC[C@@H](O)C2)c1C` [Example 2114, (R)-1-(3-((3′-(3-((R)-3-hydroxypyrrolidin-1-yl)propoxy)-2,2′-dimethyl-[1,1′-biphenyl]-3-yl)oxy)propyl)piperidin-3-ol]: the IC50 (IC50 range class) was in the range of 90.1 to 1000 nM.

For `Cc1c(OCCCN2CC[C@@H](O)C2)cccc1-c1cccc(OCCCN2CCC[C@H](O)C2)c1C` [Example 2115, (S)-1-(3-((3′-(3-((R)-3-hydroxypyrrolidin-1-yl)propoxy)-2,2′-dimethyl-[1,1′-biphenyl]-3-yl)oxy)propyl)piperidin-3-ol], the IC50 (IC50 range class) lay within 20.1 to 90 nM. Still for that read-out and setting: under `Cc1c(OCCCN[C@@H](Cc2ccccn2)C(=O)O)cccc1-c1cccc(OCCCN2CC[C@@H](O)C2)c1C` [Example 2116, (S)-2-((3-((3′-(3-((R)-3-hydroxypyrrolidin-1-yl)propoxy)-2,2′-dimethyl-[1,1′-biphenyl]-3-yl)oxy)propyl)amino)-3-(pyridin-2-yl)propanoic acid] stands 90.1 to 1000 nM; under `Cc1c(OCCCN[C@@H](Cc2cccnc2)C(=O)O)cccc1-c1cccc(OCCCN2CC[C@@H](O)C2)c1C` [Example 2117, (S)-2-((3-((3′-(3-((R)-3-hydroxypyrrolidin-1-yl)propoxy)-2,2′-dimethyl-[1,1′-biphenyl]-3-yl)oxy)propyl)amino)-3-(pyridin-3-yl)propanoic acid], 90.1 to 1000 nM; under `Cc1c(OCCCNCCc2ccccn2)cccc1-c1cccc(OCCCN2CC[C@@H](O)C2)c1C` [Example 2118, (R)-1-(3-((2,2′-dimethyl-3′-(3-((2-(pyridin-2-yl)ethyl)amino)propoxy)-[1,1′-biphenyl]-3-yl)oxy)propyl)pyrrolidin-3-ol], 20.1 to 90 nM. Still for that read-out and setting: then `Cc1c(COc2cc(OCc3cncc(C#N)c3)c(CN3CCCC[C@H]3C(=O)O)cc2Cl)cccc1-c1cccc(COc2cc(OCc3cncc(C#N)c3)c(CN3CCCC[C@H]3C(=O)O)cc2Cl)c1C` [Example 2119, (2S,2′S)-1,1′-(((((2,2′-dimethyl-[1,1′-biphenyl]-3,3′-diyl)bis(methylene))bis(oxy))bis(5-chloro-2-((5-cyanopyridin-3-yl)methoxy)-4,1-phenylene))bis(methylene))bis(piperidine-2-carboxylic acid)], with 0.04 to 20 nM. The same measure, in the same setting: under `Cc1c(COc2cc(OCc3cncc(C#N)c3)c(CO)cc2Cl)cccc1-c1cccc(COc2cc(OCc3cncc(C#N)c3)c(CN3CCCC[C@H]3C(=O)O)cc2Cl)c1C` [Example 2120, (S)-1-(5-chloro-4-((3′-((2-chloro-5-((5-cyanopyridin-3-yl)methoxy)-4-(hydroxymethyl)phenoxy)methyl)-2,2′-dimethyl-[1,1′-biphenyl]-3-yl)methoxy)-2-((5-cyanopyridin-3-yl)methoxy)benzyl)piperidine-2-carboxylic acid] stands 0.04 to 20 nM. Consider `Cc1c(COc2cc(OCc3cncc(C#N)c3)c(CN[C@](C)(CO)C(=O)O)cc2Cl)cccc1-c1cccc(COc2cc(OCc3cncc(C#N)c3)c(CN[C@](C)(CO)C(=O)O)cc2Cl)c1C` [Example 2121, (2R,2′R)-2,2′-((((((2,2′-dimethyl-[1,1′-biphenyl]-3,3′-diyl)bis(methylene))bis(oxy))bis(5-chloro-2-((5-cyanopyridin-3-yl)methoxy)-4,1-phenylene))bis(methylene))bis(azanediyl))bis(3-hydroxy-2-methylpropanoic acid)], for which, under “IC50 range class”, the IC50 was 0.04 to 20 nM. In the case of `COc1cc(OCc2cccc(-c3cccc(COc4cc(OC)c(CNC(CO)CO)cc4Cl)c3C)c2C)c(Cl)cc1CNC(CO)CO` [Example 2122, 2,2′-((((((2,2′-dimethyl-[1,1′-biphenyl]-3,3′-diyl)bis(methylene))bis(oxy))bis(5-chloro-2-methoxy-4,1-phenylene))bis(methylene))bis(azanediyl))bis(propane-1,3-diol)], the IC50 (IC50 range class) lay within 0.04 to 20 nM.

With `Cc1c(COc2cc(OCc3cncc(C#N)c3)c(CN[C@@](C)(CO)C(=O)O)cc2Cl)cccc1-c1cccc(COc2cc(OCc3cncc(C#N)c3)c(CN[C@@](C)(CO)C(=O)O)cc2Cl)c1C` [Example 2123, (2S,2′S)-2,2′-((((((2,2′-dimethyl-[1,1′-biphenyl]-3,3′-diyl)bis(methylene))bis(oxy))bis(5-chloro-2-((5-cyanopyridin-3-yl)methoxy)-4,1-phenylene))bis(methylene))bis(azanediyl))bis(3-hydroxy-2-methylpropanoic acid)], the IC50 (IC50 range class) lay in the range of 0.04 to 20 nM.

As to `Cc1c(COc2cc(OCc3cncc(C#N)c3)c(CO)cc2Cl)cccc1-c1cccc(COc2cc(OCc3cncc(C#N)c3)c(CN[C@@](C)(CO)C(=O)O)cc2Cl)c1C` [Example 2124, (S)-2-((5-chloro-4-((3′-((2-chloro-5-((5-cyanopyridin-3-yl)methoxy)-4-(hydroxymethyl)phenoxy)methyl)-2,2′-dimethyl-[1,1′-biphenyl]-3-yl)methoxy)-2-((5-cyanopyridin-3-yl)methoxy)benzyl)amino)-3-hydroxy-2-methylpropanoic acid], under “IC50 range class”, the IC50 lay in the range of 0.04 to 20 nM.
